From patent US4055715A, “Method of producing 1-N-[L-(-)-α-hydroxy-γ-aminobutyryl]XK-62-2” (Abbott Laboratories, priority 1974, dated 1977)
Values after ≈ are worked out from the molar mass of the structure shown. Read-outs that look alike come from different tables or passages of the source.

What was measured:
Escherichia coli KY 8349 = test: Agar dilution MIC, pH 7.2 (Table 2); type: cell-based; conditions: KY8349, E. coli KY 8349, produces neomycin-kanamycin phosphotransferase Type I, read-out: Minimum Inhibitory Concentration
[1] = tested on: Shigella sonnei ATCC 9290; test: microbe, parasite or virus in culture; type: cell-based
[2] = tested on: Salmonella typhosa ATCC 9992; test: Agar-dilution MIC, pH 8.0 (Table 1); type: cell-based; conditions: Salmonella enterica, pH 8, read-out: Minimum Inhibitory Concentration
[3] = tested on: Proteus vulgaris ATCC 6897; test: microbe, parasite or virus in culture; type: cell-based
Sarcina lutea ATCC 9341 = test: Agar dilution MIC, pH 7.2 (Table 2); type: cell-based; conditions: Micrococcus luteus
[4] = tested on: Pseudomonas aeruginosa KY 8510; test: Agar dilution MIC, pH 7.2 (Table 2); type: cell-based
[5] = tested on: Pseudomonas aeruginosa KY 8512; test: Agar dilution MIC, pH 7.2 (Table 2); type: cell-based
[6] = tested on: Bacillus subtilis ATCC 6633; test: Agar dilution MIC, pH 7.2 (Table 2); type: cell-based
Escherichia coli KY 8348 [7] = test: Agar-dilution MIC, pH 8.0 (Table 1); type: cell-based; conditions: Escherichia coli, KY8348; E. coli KY 8348, produces gentamicin acetyltransferase Type I; agar-dilution, pH 8.0; read-out: Minimum Inhibitory Concentration
From the text: (§1) The former bacterium inactivates kanamycins and gentamicins by adenylation, and the latter inactivates gentamicins by acetylation.

Escherichia coli KY 8327 [8] = test: Agar-dilution MIC, pH 8.0 (Table 1); type: cell-based; conditions: Escherichia coli, KY8327; E. coli KY 8327, produces gentamicin adenyltransferase; agar-dilution, pH 8.0; read-out: Minimum Inhibitory Concentration
From the text: as §1

[9] = tested on: Pseudomonas aeruginosa KY 8511; test: Agar dilution MIC, pH 7.2 (Table 2); type: cell-based
[10] = tested on: Klebsiella pneumoniae No. 8045; test: Agar dilution MIC, pH 7.2 (Table 2); type: cell-based
[11] = tested on: Pseudomonas aeruginosa KY 8516; test: Agar dilution MIC, pH 7.2 (Table 2); type: cell-based
Escherichia coli T-5 = test: Agar dilution MIC, pH 7.2 (Table 2); type: cell-based
Escherichia coli KY 8321 = test: Agar dilution MIC, pH 7.2 (Table 2); type: cell-based
Providencia sp. 164 = test: Agar dilution MIC, pH 7.2 (Table 2); type: cell-based; conditions: Providencia sp. 164, produces gentamicin acetyltransferase Type II, read-out: Minimum Inhibitory Concentration
[12] = tested on: Pseudomonas aeruginosa BMH 1; test: Agar dilution MIC, pH 7.2 (Table 2); type: cell-based
Proteus vulgaris 6897 = test: Agar dilution MIC, pH 7.2 (Table 2); type: cell-based
[13] = tested on: Staphylococcus aureus ATCC 6538P; test: Agar-dilution MIC, pH 8.0 (Table 1); type: cell-based; conditions: ATCC6538P
Proteus mirabilis 1287 = test: Agar dilution MIC, pH 7.2 (Table 2); type: cell-based
Escherichia coli KY 8327 [14] = test: Agar dilution MIC, pH 7.2 (Table 2); type: cell-based; conditions: KY8327, E. coli KY 8327, read-out: Minimum Inhibitory Concentration
Proteus morganii KY 4298 = test: Agar dilution MIC, pH 7.2 (Table 2); type: cell-based; conditions: Morganella morganii
[15] = tested on: Pseudomonas aeruginosa BMH 1; test: Agar-dilution MIC, pH 8.0 (Table 1); type: cell-based
[16] = tested on: Bacillus subtilis No. 10707; test: Agar-dilution MIC, pH 8.0 (Table 1); type: cell-based
Escherichia coli T-2 = test: Agar dilution MIC, pH 7.2 (Table 2); type: cell-based
[17] = tested on: Krebsiella pneumoniae ATCC 10031; test: Agar-dilution MIC, pH 8.0 (Table 1); type: cell-based; conditions: Klebsiella pneumoniae
[18] = tested on: Staphylococcus aureus 209 P; test: Agar dilution MIC, pH 7.2 (Table 2); type: cell-based; conditions: pH 7.2, read-out: Minimum Inhibitory Concentration
[19] = tested on: Staphylococcus aureus Smith; test: Agar dilution MIC, pH 7.2 (Table 2); type: cell-based; conditions: pH 7.2, read-out: Minimum Inhibitory Concentration
Escherichia coli ATCC 26 = test: Agar-dilution MIC, pH 8.0 (Table 1); type: cell-based
Escherichia coli KY 8348 [20] = test: Agar dilution MIC, pH 7.2 (Table 2); type: cell-based; conditions: KY8348, E. coli KY 8348, produces gentamicin acetyltransferase Type I, read-out: Minimum Inhibitory Concentration
[21] = Acute toxicity in mice, intravenous injection; conditions: mouse, in vivo
Proteus rettgeri KY 4288 = test: Agar dilution MIC, pH 7.2 (Table 2); type: cell-based; conditions: Providencia rettgeri, KY4288, P. rettgeri KY 4288, read-out: Minimum Inhibitory Concentration

NC[C@H]1O[C@H](O[C@H]2[C@H](O)[C@@H](O[C@H]3O[C@H](CO)[C@@H](O)[C@H](N)[C@H]3O)[C@H](N)C[C@@H]2N)[C@H](O)[C@@H](O)[C@@H]1O [Kanamycin A, kanamycin A] showed an MIC (Escherichia coli KY 8349) of over 100 µg/mL, an MIC ([1]; ATCC9290, pH 8, read-out: Minimum Inhibitory Concentration) of 0.16 µg/mL (≈ 0.33 µM) and an MIC [2] of 0.088 µg/mL (≈ 0.182 µM). The MIC ([3]; ATCC6897, pH 8, read-out: Minimum Inhibitory Concentration) was 0.16 µg/mL (≈ 0.33 µM), the MIC (Sarcina lutea ATCC 9341; ATCC9341, pH 7.2, read-out: Minimum Inhibitory Concentration) was 6.25 µg/mL (≈ 12.9 µM) and the MIC ([4]; KY8510, pH 7.2, read-out: Minimum Inhibitory Concentration) was 100 µg/mL (≈ 206 µM). It also gave an MIC ([5]; KY8512, pH 7.2, read-out: Minimum Inhibitory Concentration) of 12.5 µg/mL (≈ 25.8 µM), an MIC ([6]; ATCC6633, pH 7.2, read-out: Minimum Inhibitory Concentration) of 0.2 µg/mL (≈ 0.413 µM) and an MIC (Escherichia coli KY 8348 [7]) of 0.041 µg/mL (≈ 0.0846 µM). For the same compound, the MIC (Escherichia coli KY 8327 [8]) was 1.04 µg/mL (≈ 2.15 µM), the MIC ([9]; KY8511, pH 7.2, read-out: Minimum Inhibitory Concentration) was 100 µg/mL (≈ 206 µM) and the MIC ([10]; NO.8045, pH 7.2, read-out: Minimum Inhibitory Concentration) was 0.4 µg/mL (≈ 0.826 µM). The MIC ([11]; KY8516, pH 7.2, read-out: Minimum Inhibitory Concentration) was over 100 µg/mL, the MIC (Escherichia coli T-5; T5, pH 7.2, read-out: Minimum Inhibitory Concentration) was 1.56 µg/mL (≈ 3.22 µM) and the MIC (Escherichia coli KY 8321; KY8321, pH 7.2, read-out: Minimum Inhibitory Concentration) was 100 µg/mL (≈ 206 µM). The MIC (Providencia sp. 164) was over 100 µg/mL, the MIC ([12]; BMH1, pH 7.2, read-out: Minimum Inhibitory Concentration) was 12.5 µg/mL (≈ 25.8 µM) and the MIC (Proteus vulgaris 6897; Proteus vulgaris, 6897, pH 7.2, read-out: Minimum Inhibitory Concentration) was 3.12 µg/mL (≈ 6.44 µM). It also gave an MIC ([13]; pH 8, read-out: Minimum Inhibitory Concentration) of 0.021 µg/mL (≈ 0.0433 µM), an MIC (Proteus mirabilis 1287; Proteus mirabilis, 1287, pH 7.2, read-out: Minimum Inhibitory Concentration) of 6.25 µg/mL (≈ 12.9 µM) and an MIC (Escherichia coli KY 8327 [14]) of 50 µg/mL (≈ 103 µM). The MIC (Proteus morganii KY 4298; KY4298, pH 7.2, read-out: Minimum Inhibitory Concentration) was 1.56 µg/mL (≈ 3.22 µM), the MIC ([15]; BMH1, pH 8, read-out: Minimum Inhibitory Concentration) was 5.2 µg/mL (≈ 10.7 µM) and the MIC ([16]; NO.10707, pH 8, read-out: Minimum Inhibitory Concentration) was 0.021 µg/mL (≈ 0.0433 µM). It also gave an MIC (Escherichia coli T-2; T2, pH 7.2, read-out: Minimum Inhibitory Concentration) of 1.56 µg/mL (≈ 3.22 µM), an MIC ([17]; ATCC10031, pH 8, read-out: Minimum Inhibitory Concentration) of 0.042 µg/mL (≈ 0.0867 µM) and an MIC ([18]; 209P) of 0.2 µg/mL (≈ 0.413 µM). For the same compound, the MIC [19] was 0.2 µg/mL (≈ 0.413 µM) and the MIC (Escherichia coli ATCC 26; ATCC26, pH 8, read-out: Minimum Inhibitory Concentration) was 0.16 µg/mL (≈ 0.33 µM).
CNC[C@@H]1CC[C@@H](N)[C@@H](O[C@H]2[C@H](O)[C@@H](O[C@H]3OC[C@](C)(O)[C@H](NC)[C@H]3O)[C@H](N)C[C@@H]2N)O1 [XK-62-2] showed an MIC (Escherichia coli KY 8349) of 0.4 µg/mL (≈ 0.863 µM), an MIC (Escherichia coli KY 8348 [20]) of 12.5 µg/mL (≈ 27 µM) and an MIC ([1]; ATCC9290, S. sonnei ATCC 9290, agar-dilution, pH 8.0, read-out: Minimum Inhibitory Concentration) of 0.033 µg/mL (≈ 0.0712 µM). It also gave an MIC [2] of 0.008 µg/mL (≈ 0.0173 µM), an MIC ([3]; ATCC6897, P. vulgaris ATCC 6897, agar-dilution, pH 8.0, read-out: Minimum Inhibitory Concentration) of 0.033 µg/mL (≈ 0.0712 µM) and an MIC (Sarcina lutea ATCC 9341; ATCC9341, Sarcina lutea ATCC 9341, agar dilution, pH 7.2, read-out: Minimum Inhibitory Concentration) of 0.4 µg/mL (≈ 0.863 µM). For the same compound, the LD50 [21] was 93 mg/kg, the MIC ([4]; KY8510, P. aeruginosa KY 8510, produces kanamycin acetyltransferase, agar dilution, pH 7.2, read-out: Minimum Inhibitory Concentration) was 1.56 µg/mL (≈ 3.37 µM) and the MIC ([5]; KY8512, P. aeruginosa KY 8512, produces neomycin-kanamycin phosphotransferase Type I and II and streptomycin phosphotransferase, agar dilution, pH 7.2, read-out: Minimum Inhibitory Concentration) was 0.78 µg/mL (≈ 1.68 µM). It also gave an MIC ([6]; ATCC6633, B. subtilis ATCC 6633, agar dilution, pH 7.2, read-out: Minimum Inhibitory Concentration) of under 0.05 µg/mL, an MIC (Escherichia coli KY 8348 [7]) of 1.04 µg/mL (≈ 2.24 µM) and an MIC (Escherichia coli KY 8327 [8]) of 1.04 µg/mL (≈ 2.24 µM). The MIC ([9]; KY8511, P. aeruginosa KY 8511, produces gentamicin acetyltransferase Type I and neomycin-kanamycin phosphotransferase Type I, agar dilution, pH 7.2, read-out: Minimum Inhibitory Concentration) was 100 µg/mL (≈ 216 µM), the MIC ([10]; K. pneumoniae No. 8045, agar dilution, pH 7.2, read-out: Minimum Inhibitory Concentration) was 0.1 µg/mL (≈ 0.216 µM) and the MIC ([11]; KY8516, P. aeruginosa KY 8516, probably produces kanamycin acetyltransferase, agar dilution, pH 7.2, read-out: Minimum Inhibitory Concentration) was 3.12 µg/mL (≈ 6.73 µM). It also gave an MIC (Escherichia coli T-5; T5, E. coli T-5, agar dilution, pH 7.2, read-out: Minimum Inhibitory Concentration) of 0.4 µg/mL (≈ 0.863 µM), an MIC (Escherichia coli KY 8321; KY8321, E. coli KY 8321, produces gentamicin adenyltransferase and neomycin-kanamycin phosphotransferase Type II, agar dilution, pH 7.2, read-out: Minimum Inhibitory Concentration) of 3.12 µg/mL (≈ 6.73 µM) and an MIC (Providencia sp. 164) of 100 µg/mL (≈ 216 µM). For the same compound, the MIC ([12]; BMH1, P. aeruginosa BMH 1, agar dilution, pH 7.2, read-out: Minimum Inhibitory Concentration) was 0.78 µg/mL (≈ 1.68 µM), the MIC (Proteus vulgaris 6897; Proteus vulgaris, P. vulgaris 6897, agar dilution, pH 7.2, read-out: Minimum Inhibitory Concentration) was 0.78 µg/mL (≈ 1.68 µM) and the MIC (Proteus rettgeri KY 4288) was 0.4 µg/mL (≈ 0.863 µM). The MIC ([13]; S. aureus ATCC 6538P, agar-dilution, pH 8.0, read-out: Minimum Inhibitory Concentration) was 0.088 µg/mL (≈ 0.19 µM), the MIC (Proteus mirabilis 1287; Proteus mirabilis, P. mirabilis 1287, agar dilution, pH 7.2, read-out: Minimum Inhibitory Concentration) was 0.78 µg/mL (≈ 1.68 µM) and the MIC (Escherichia coli KY 8327 [14]) was 12.5 µg/mL (≈ 27 µM). For the same compound, the MIC (Proteus morganii KY 4298; KY4298, P. morganii KY 4298, agar dilution, pH 7.2, read-out: Minimum Inhibitory Concentration) was 0.4 µg/mL (≈ 0.863 µM), the MIC ([15]; BMH1, P. aeruginosa BMH 1, agar-dilution, pH 8.0, read-out: Minimum Inhibitory Concentration) was 0.52 µg/mL (≈ 1.12 µM) and the MIC ([16]; B. subtilis No. 10707, agar-dilution, pH 8.0, read-out: Minimum Inhibitory Concentration) was 0.044 µg/mL (≈ 0.0949 µM). For the same compound, the MIC (Escherichia coli T-2; T2, E. coli T-2, agar dilution, pH 7.2, read-out: Minimum Inhibitory Concentration) was 0.4 µg/mL (≈ 0.863 µM), the MIC ([17]; ATCC10031, K. pneumoniae ATCC 10031, agar-dilution, pH 8.0, read-out: Minimum Inhibitory Concentration) was 0.004 µg/mL (≈ 0.00863 µM) and the MIC ([18]; S. aureus 209 P, agar dilution) was 0.1 µg/mL (≈ 0.216 µM). It also gave an MIC ([19]; S. aureus Smith, agar dilution) of under 0.05 µg/mL and an MIC (Escherichia coli ATCC 26; ATCC26, E. coli ATCC 26, agar-dilution, pH 8.0, read-out: Minimum Inhibitory Concentration) of 0.016 µg/mL (≈ 0.0345 µM).
